# Laboratory results as given in PubChem BioAssay (NCI).
# Several values for one entry are separate records, joined by “and”; a condition that tells them apart may be missing. Identical values can stand only once.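 Each compound was tested at five concentrations against cells in 96-well plates for 48 hours. GI50: concentration for 50% inhibition of growth. TGI: concentration producing complete growth inhibition.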 Residues, ends and D or L forms follow the SMILES beside them. *: point of attachment. Cbz = O=C(OCc1ccccc1)*
# What was measured:
# Test in all cases: NCI tumour cell line growth inhibition, 48 h
# A498 renal = test system: A498 renal
# CAKI-1 renal = test system: CAKI-1 renal
# COLO 205 colon = test system: COLO 205 colon
# LOX IMVI melanoma = test system: LOX IMVI melanoma
# OVCAR-3 ovarian = test system: OVCAR-3 ovarian
# SK-MEL-5 melanoma = test system: SK-MEL-5 melanoma
# SNB-19 CNS = test system: SNB-19 CNS
# U251 CNS = test system: U251 CNS
# NCI-H226 lung = test system: NCI-H226 lung
# PC-3 prostate = test system: PC-3 prostate
Structure (SMILES),TGI (A498 renal),TGI (CAKI-1 renal) [µM],TGI (COLO 205 colon),TGI (LOX IMVI melanoma) [µM],TGI (OVCAR-3 ovarian) [µM],TGI (SK-MEL-5 melanoma) [µM],TGI (SNB-19 CNS) [µM],TGI (U251 CNS) [µM],TGI (NCI-H226 lung) [µM],GI50 (CAKI-1 renal) [µM],GI50 (COLO 205 colon),GI50 (LOX IMVI melanoma),GI50 (NCI-H226 lung) [µM],GI50 (OVCAR-3 ovarian) [µM],GI50 (PC-3 prostate),TGI (PC-3 prostate) [µM],GI50 (SK-MEL-5 melanoma),GI50 (SNB-19 CNS),GI50 (U251 CNS),GI50 (A498 renal)
CN(/N=C\c1ccnc2ccccc12)c1ccccc1,54.6 µM,91.7,39.8 µM,32.3,44.2,31.2,> 100,84.9,–,–,–,–,–,–,–,–,–,–,–,–
O=C(O)CN(c1ccc(F)cc1)S(=O)(=O)c1ccccc1,> 100 µM,> 100,> 100 µM,> 100,> 100,> 100,> 100,> 100,> 100,–,–,–,–,–,–,–,–,–,–,–
O=[N+]([O-])C=C1c2ccccc2-c2ccccc21,34.6 µM,24.5,3.33 µM,30.9,28.4,–,51.8,–,–,–,–,–,–,–,–,–,–,–,–,–
Cc1c2c(nn1-c1ccc(S(=O)(=O)NC(=S)NC(=O)c3ccccc3)cc1)-c1ccccc1CC2,–,51.9,> 100 µM,> 100,41.4,96.5,> 100,> 100,> 100,16.1,44.9 µM,50.3 µM,60.2,13.7,42 µM,> 100,30.7 µM,96.4 µM,43.3 µM,–
COc1cc(/C=C/C(=O)c2c(-c3ccc(F)cc3)nc3sc(C)nn23)cc(OC)c1OC,7.23 µM,18.2,3.77 µM,3.52,7,3.99,13.1,5.45,8.3,3.27,1.98 µM,1.76 µM,2.46,2.63,–,–,1.86 µM,3.24 µM,2.01 µM,2.3 µM
O=c1cccc2n1CC1CNC[C@H]2C1,–,> 100,> 100 µM,> 100,> 100,> 100,> 100,> 100,–,–,–,–,–,–,–,> 100,–,–,–,–
COC(=O)[C@@H](C)C[C@H](Cc1ccccc1)NC(=O)c1csc([C@@H](C[C@H](C(C)C)N(C)C(=O)[C@@H](NC(=O)[C@H]2CCCN2C)C2CC2)OC(C)=O)n1,0.00817 µM and < 0.0025 µM,–,0.0117 µM and < 0.0025 µM,> 25,0.00695,–,> 25,> 25,> 25,–,0.000874 µM and < 0.0025 µM,0.00477 µM and 0.0025 µM,–,0.000198,0.000545 µM and 0.0025 µM,> 25,0.000329 µM and < 0.0025 µM,0.00125 µM and 0.0025 µM,0.00287 µM and 0.0025 µM,0.00147 µM and < 0.0025 µM
CC(C)C[C@@H](C=O)NC(=O)[C@H](CC(C)C)NC(=O)[C@H](CC(C)C)NC(=O)OCc1ccccc1 (Cbz-Leu-Leu-Leu-aldehyde),2.22 µM,–,1.62 µM,0.46,0.538,1.08,> 100,1.07,–,–,0.404 µM,0.206 µM,–,0.225,0.479 µM,2.91,0.349 µM,0.829 µM,0.332 µM,0.424 µM
COc1cc(O)c2c(c1)C(=O)C1=C(C2=O)C(O)C[C@@](C)(O)C1 (some centres not stated),3.29 µM,14,0.844 µM,1.68,5.67,–,14.1,6.34,13.2,–,–,–,–,–,–,–,–,–,–,–
